In patent publication US7435837B2, “Dihydrobenzofuranyl alkanamine derivatives and methods for using same” (Wyeth, priority 2003, dated 2008):

Assays:
[1] = target: T1, human 5-hydroxytryptamine-2C (h5-HT2C) receptor (Homo sapiens, UniProt P28335); test: [125I]DOI binding to membranes of CHO cells expressing the human 5-HT2C receptor; conditions: [125I]DOI radioligand, CHO cell membranes, room temperature 60 min; read-out: 5-HT2C Affinity Ki
T1 construct: expressed in transfected cells; host or cells: CHO (Chinese Hamster Ovary) cells; membranes
T1 sequence (P28335 33-458): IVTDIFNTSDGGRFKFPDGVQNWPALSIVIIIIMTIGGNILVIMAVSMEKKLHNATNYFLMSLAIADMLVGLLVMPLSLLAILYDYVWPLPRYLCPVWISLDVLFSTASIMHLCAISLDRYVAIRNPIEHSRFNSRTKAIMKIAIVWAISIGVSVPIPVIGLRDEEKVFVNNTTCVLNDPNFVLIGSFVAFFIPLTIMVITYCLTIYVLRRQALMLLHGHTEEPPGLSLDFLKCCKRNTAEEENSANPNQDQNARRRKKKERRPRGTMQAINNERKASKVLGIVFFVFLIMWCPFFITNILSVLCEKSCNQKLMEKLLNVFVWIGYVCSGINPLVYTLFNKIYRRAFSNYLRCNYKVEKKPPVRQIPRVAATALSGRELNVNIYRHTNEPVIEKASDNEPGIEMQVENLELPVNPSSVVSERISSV

[2] = target: T2, human 5-HT2C receptor (Homo sapiens, UniProt P28335); test: 5-HT2C receptor-stimulated calcium mobilization (FLIPR) in CHO cells; assay type: cell-based; conditions: for Emax: CHO, percentage of the response observed with a maximally effective concentration of 5-HT, read-out: 5-HT2C Function Emax (%); for EC50: calcium mobilization, CHO cells stably expressing human 5-HT2C, read-out: 5-HT2C Function EC50;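 for all read-outs here: Fluo-3-AM fluorescence read on FLIPR every 1 s, agonist added after 10 baseline reads, response taken as peak minus lowest raw fluorescence count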
T2 sequence (P28335 33-458): T1 sequence (P28335 33-458)

SMILES	Ki [1]	Emax [2]	EC50 [2]
COc1cc2c(c(-c3ccccc3OC)c1)OC(CN)C2 (racemic) [Example 359, (±)-{[7-(2-methoxyphenyl)-5-methoxy-2,3-dihydro-1-benzofuran-2-yl]methyl}amine]	10 nM	90%	8 nM
COc1cc2c(c(-c3ccc(Cl)cc3Cl)c1)OC(CN)C2 (racemic) [Example 365, (±)-{[7-(2,4-dichlorophenyl)-5-methoxy-2,3-dihydro-1-benzofuran-2-yl]methyl}amine]	24 nM	100%	15 nM
COc1cc2c(c(-c3cc(C)ccc3C)c1)OC(CN)C2 (racemic) [Example 370, (±)-{[7-(2,5-dimethylphenyl)-5-methoxy-2,3-dihydro-1-benzofuran-2-yl]methyl}amine]	30 nM	80%	190 nM
COc1cc2c(c(-c3ccc(F)c(Cl)c3)c1)OC(CN)C2 (racemic) [Example 373, (±)-{[7-(3-chloro-4-fluorophenyl)-5-methoxy-2,3-dihydro-1-benzofuran-2-yl]methyl}amine]	61 nM	60%	859 nM
Cc1ccccc1-c1c(F)ccc2c1OC(CN)C2 (racemic) [Example 395, (±)-{[6-fluoro-7-(2-methylphenyl)-2,3-dihydro-1-benzofuran-2-yl]methyl}amine]	0.3 nM	90%	0.4 nM
NCC1Cc2ccc(F)c(-c3ccccc3Cl)c2O1 (racemic) [Example 398, (±)-{[7-(2-chlorophenyl)-6-fluoro-2,3-dihydro-1-benzofuran-2-yl]methyl}amine]	0.04 nM	100%	0.1 nM
CNCC1Cc2ccc(F)c(-c3ccccc3Cl)c2O1 (racemic) [Example 402, (±)-{[6-fluoro-7-(2-chlorophenyl)-2,3-dihydro-1-benzofuran-2-yl]methyl}methylamine]	0.24 nM	90%	0.1 nM
CNCC1Cc2cccc(-c3ccccc3F)c2O1 (racemic) [Example 412, (±)-[(N-methyl-1-[7-(2-fluorophenyl)-2,3-dihydro-1-benzofuran-2-yl]methanamine]	5.3 nM	90%	34 nM
CNCC1Cc2cccc(-c3ccccc3OC)c2O1 (racemic) [Example 413, (±)-[(N-methyl-1-[7-(2-methoxyphenyl)-2,3-dihydro-1-benzofuran-2-yl]methanamine]	21 nM	90%	8 nM
CNCC1Cc2cccc(-c3ccc(C)cc3)c2O1 (racemic) [Example 418, (±)-[(N-methyl-1-[7-(4-methylphenyl)-2,3-dihydro-1-benzofuran-2-yl]methanamine]	1.1 nM	80%	59 nM
CNCC1Cc2cccc(-c3ccc(F)cc3)c2O1 (racemic) [Example 419, (±)-[(N-methyl-1-[7-(4-fluorophenyl)-2,3-dihydro-1-benzofuran-2-yl]methanamine]	3.8 nM	80%	1360 nM
CNCC1Cc2cccc(-c3ccc(Cl)cc3)c2O1 (racemic) [Example 420, (±)-[(N-methyl-1-[7-(4-chlorophenyl)-2,3-dihydro-1-benzofuran-2-yl]methanamine]	7 nM	80%	504 nM
CNCC1Cc2cccc(-c3cccc(OC)c3OC)c2O1 (racemic) [Example 423, (±)-[(N-methyl-1-[7-(2,3-dimethoxyphenyl)-2,3-dihydro-1-benzofuran-2-yl]methanamine]	6.1 nM	70%	28 nM

The remaining compounds from weak to strong by Ki [1], led by results:

Ki [1]	Emax [2]	EC50 [2]	SMILES
36 nM	70%	343 nM	COc1cc2c(c(-c3cccc(Cl)c3Cl)c1)OC(CN)C2 (racemic) [Example 362, (±)-{[7-(2,3-dichlorophenyl)-5-methoxy-2,3-dihydro-1-benzofuran-2-yl]methyl}amine]
33 nM	90%	73 nM	COc1cc2c(c(-c3cccc(F)c3F)c1)OC(CN)C2 (racemic) [Example 361, (±)-{[7-(2,3-difluorophenyl)-5-methoxy-2,3-dihydro-1-benzofuran-2-yl]methyl}amine]
26 nM	70%	225 nM	COc1cc2c(c(-c3cccc(C)c3C)c1)OC(CN)C2 (racemic) [Example 363, (±)-{[7-(2,3-dimethylphenyl)-5-methoxy-2,3-dihydro-1-benzofuran-2-yl]methyl}amine]
23 nM	80%	224 nM	COc1cc2c(c(-c3cc(Cl)ccc3OC)c1)OC(CN)C2 (racemic) [Example 372, (±)-{[7-(5-chloro-2-methoxyphenyl)-5-methoxy-2,3-dihydro-1-benzofuran-2-yl]methyl}amine]
21.5 nM	60%	45 nM	CC(C)NCC1Cc2cccc(-c3c(Cl)cccc3Cl)c2O1 (racemic) [Example 393, (±)-N-{[7-(2,6-dichlorophenyl)-2,3-dihydro-1-benzofuran-2-yl]methyl}propan-2-amine]
14 nM	80%	64 nM	COc1ccc(OC)c(-c2cc(OC)cc3c2OC(CN)C3)c1 (racemic) [Example 371, (±)-{[7-(2,5-dimethoxyphenyl)-5-methoxy-2,3-dihydro-1-benzofuran-2-yl]methyl}amine]
13 nM	80%	394 nM	COc1cc2c(c(-c3cc(F)ccc3F)c1)OC(CN)C2 (racemic) [Example 366, (±)-{[7-(2,5-difluorophenyl)-5-methoxy-2,3-dihydro-1-benzofuran-2-yl]methyl}amine]
3.7 nM	60%	183 nM	CNCC1Cc2cccc(-c3cccc(OC)c3)c2O1 (racemic) [Example 417, (±)-[(N-methyl-1-[7-(3-methoxyphenyl)-2,3-dihydro-1-benzofuran-2-yl]methanamine]
3.4 nM	60%	781 nM	CNCC1Cc2cccc(-c3cccc(C)c3)c2O1 (racemic) [Example 414, (±)-[(N-methyl-1-[7-(3-methylphenyl)-2,3-dihydro-1-benzofuran-2-yl]methanamine]
3 nM	90%	22 nM	CNCC1Cc2cccc(-c3ccccc3Cl)c2O1 (racemic) [Example 409, (±)-[(N-methyl-1-[7-(2-chlorophenyl)-2,3-dihydro-1-benzofuran-2-yl]methanamine]
1.8 nM	80%	2 nM	CCNCC1Cc2cccc(-c3c(Cl)cccc3Cl)c2O1 (racemic) [Example 390, (±)-N-{[7-(2,6-dichlorophenyl)-2,3-dihydro-1-benzofuran-2-yl]methyl}ethanamine]
1.6 nM	70%	467 nM	CNCC1Cc2cccc(-c3cccc(Cl)c3)c2O1 (racemic) [Example 416, (±)-[(N-methyl-1-[7-(3-chlorophenyl)-2,3-dihydro-1-benzofuran-2-yl]methanamine]
1.5 nM	70%	93 nM	CNCC1Cc2cccc(-c3ccc(OC)cc3)c2O1 (racemic) [Example 421, (±)-[(N-methyl-1-[7-(4-methoxyphenyl)-2,3-dihydro-1-benzofuran-2-yl]methanamine]
1.1 nM	70%	109 nM	CNCC1Cc2cccc(-c3cccc(F)c3)c2O1 (racemic) [Example 415, (±)-[(N-methyl-1-[7-(3-fluorophenyl)-2,3-dihydro-1-benzofuran-2-yl]methanamine]
0.9 nM	85%	62 nM	COc1cc2c(c(-c3ccc(F)cc3F)c1)OC(CN)C2 (racemic) [Example 364, (±)-{[7-(2,4-difluorophenyl)-5-methoxy-2,3-dihydro-1-benzofuran-2-yl]methyl}amine]
0.6 nM	100%	19 nM	COc1cc2c(c(-c3c(C)cccc3C)c1)OC(CN)C2 (racemic) [Example 374, (±)-{[7-(2,6-dimethylphenyl)-5-methoxy-2,3-dihydro-1-benzofuran-2-yl]methyl}amine]
0.51 nM	100%	9 nM	CNCC1Cc2cccc(-c3ccccc3C)c2O1 (racemic) [Example 406, (±)-[(N-methyl-1-[7-(2-methylphenyl)-2,3-dihydro-1-benzofuran-2-yl]methanamine]
0.38 nM	90%	0.7 nM	CNCC1Cc2ccc(F)c(-c3ccccc3C)c2O1 (racemic) [Example 401, (±)-{[6-fluoro-7-(2-methylphenyl)-2,3-dihydro-1-benzofuran-2-yl]methyl}methylamine]
0.21 nM	100%	3 nM	COc1cc2c(c(-c3cc(Cl)ccc3Cl)c1)OC(CN)C2 (racemic) [Example 367, (±)-{[7-(2,5-dichlorophenyl)-5-methoxy-2,3-dihydro-1-benzofuran-2-yl]methyl}amine]
